The first assay has as its system H460 cells. In words: Proliferation assay in H460 cells (2 hr exposure, AlamarBlue). Type of assay: cell-based, human. Conditions: 2 hrs exposure, wash, 70 hrs growth, read-out: IC 50 in proliferation assay in H460 cells. How it is done: In vitro proliferation data on the H460 […] human tumor cell line is reported above in the compound table.
Specifically, exponentially growing cells were seeded at a density of 4×10^3 cells per well in a 96 well plate and incubated at 37° C. in 5% CO2, 95% air and 100% relative humidity for 24 hours prior to addition of test compounds. Compounds were solubilized in 100% DMSO at 200 times the desired final test concentration. At the time of drug addition, compounds were further diluted to 4 times the desired final concentration with complete medium. Aliquots of 50 μl of compound at specified concentrations were added to microtiter wells already containing 150 μl of medium, resulting in the final drug concentration reported. After drug addition, the plates were incubated for an additional 2 hours at 37° C., 5% CO2, 95% air, and 100% relative humidity, then the drug was washed off and fresh medium was added and the plates were incubated for addition 70 hrs at 37° C., 5% CO2, 95% air and 100% relative humidity. At the end of this incubation, the viable cells were quantified using the AlamarBlue assay. The drug concentration resulting in growth inhibition of 50% (IC50) was calculated using Prism software (Irvine, Calif.), and the results were listed in the table.
For `CC(OP(=O)(N1CC1)N1CC1)c1ccc([N+](=O)[O-])c(Oc2cccc([N+](=O)[O-])c2)c1` (centres unmarked) [Compound 2942], the IC50 was found to be 20 nM.

Still in this assay, the particulars now being: Homo sapiens, NCI-H460, 2 hrs exposure, wash, 70 hrs growth, read-out: IC 50 in proliferation assay in H460 cells.
For `CN(C)C(=O)c1ccccc1Oc1cc(COP(=O)(N2CC2)N2CC2)ccc1[N+](=O)[O-]` [Compound 2938], the IC50 came to 2500 nM. Turning to `CNC(=O)c1ccccc1Oc1cc(COP(=O)(N2CC2)N2CC2)ccc1[N+](=O)[O-]` [Compound 2939], the IC50 came to 2700 nM. Regarding `CNC(=O)c1ccc(Oc2cc(COP(=O)(N3CC3)N3CC3)ccc2[N+](=O)[O-])cc1` [Compound 2940], the IC50 was found to be 5 nM.

Turning to `CN(C)C(=O)c1ccc(Oc2cc(COP(=O)(N3CC3)N3CC3)ccc2[N+](=O)[O-])cc1` [Compound 2941], the IC50 was determined as 4 nM. On the same count and under the same terms, in the case of `CC(OP(=O)(N1CC1)N1CC1)c1ccc([N+](=O)[O-])c(Oc2nccs2)c1` (centres unmarked) [Compound 2944] it was more than 5000 nM. Consider `CC(OP(=O)(N1CC1)N1CC1)c1ccc([N+](=O)[O-])c(Oc2cccc3cnccc23)c1` (centres unmarked) [Compound 2945], for which the IC50 was 50 nM. Same read-out and setting: in the case of `CS(=O)(=O)Nc1ccc(Oc2cc(COP(=O)(N3CC3)N3CC3)ccc2[N+](=O)[O-])cc1` [Compound 2946] it was 30 nM. Regarding `CC(OP(=O)(N1CC1)N1CC1)c1ccc([N+](=O)[O-])c(O/N=C(\C#N)c2ccccc2)c1` (centres unmarked) [Compound 2947], the IC50 came to 200 nM. As to `N#C/C(=N\Oc1cc(COP(=O)(N2CC2)N2CC2)ccc1[N+](=O)[O-])c1ccccc1` [Compound 2948], the IC50 stood at 40 nM. For the compound `C/C(=N\Oc1cc(COP(=O)(N2CC2)N2CC2)ccc1[N+](=O)[O-])c1ccccc1` [Compound 2949], the IC50 is 400 nM. Still for that read-out and setting: in the case of `CC(OP(=O)(N1CC1)N1CC1)c1ccc([N+](=O)[O-])c(Oc2cccc(S(C)(=O)=O)c2)c1` (centres unmarked) [Compound 2950] it was 40 nM. Still for that read-out and setting: the same measure for `CS(=O)(=O)c1cccc(Oc2cc(COP(=O)(N3CC3)N3CC3)ccc2[N+](=O)[O-])c1` [Compound 2951]: 20 nM; for `CC(OP(=O)(N1CC1)N1CC1)c1ccc([N+](=O)[O-])c(Oc2cccc3ccccc23)c1` (centres unmarked) [Compound 2954]: 100 nM.

Take `CC(OP(=O)(N1CC1)N1CC1)c1ccc([N+](=O)[O-])c(Oc2cnc3ccccc3c2)c1` (centres unmarked) [Compound 2956]: the IC50 is 4 nM. As to `CC(OP(=O)(N1CC1)N1CC1)c1ccc([N+](=O)[O-])c(Oc2ccc3cccnc3c2)c1` (centres unmarked) [Compound 2957], the IC50 worked out at 40 nM. The same measure, in the same setting: the same measure for `O=[N+]([O-])c1ccc(COP(=O)(N2CC2)N2CC2)c(Oc2ccccc2)c1` [Compound 2960]: 1600 nM; for `C/C(=N\Oc1cc(C(C)OP(=O)(N2CC2)N2CC2)ccc1[N+](=O)[O-])c1ccccc1` (centres unmarked) [Compound 2961]: 2700 nM.

Take `O=[N+]([O-])c1ccc(COP(=O)(N2CC2)N2CC2)cc1Oc1cccc2ccccc12` [Compound 2966]: the IC50 was 200 nM. The same measure, in the same setting: the same measure for `O=[N+]([O-])c1ccc(COP(=O)(N2CC2)N2CC2)cc1Oc1cccc2ncccc12` [Compound 2967]: 100 nM. On to `O=[N+]([O-])c1ccc(COP(=O)(N2CC2)N2CC2)cc1Oc1ccc2ccccc2c1` [Compound 2968], for which the IC50 was determined as 4 nM. Take `O=[N+]([O-])c1ccc(COP(=O)(N2CC2)N2CC2)cc1Oc1cnc2ccccc2c1` [Compound 2969]: the IC50 came out at 2 nM. Still for that read-out and setting: in the case of `O=[N+]([O-])c1ccc(COP(=O)(N2CC2)N2CC2)cc1Oc1ccc2cccnc2c1` [Compound 2970] it was 40 nM; in that of `O=[N+]([O-])c1ccc(COP(=O)(N2CC2)N2CC2)cc1Oc1ccc2ncccc2c1` [Compound 2971], 3 nM. On the same count and under the same terms, the same measure for `CC(OP(=O)(N1CC1)N1CC1)c1ccc([N+](=O)[O-])c(Oc2cccc(C(=O)N3CCOCC3)c2)c1` (centres unmarked) [Compound 2972]: 10 nM.

For `O=C(c1cccc(Oc2cc(COP(=O)(N3CC3)N3CC3)ccc2[N+](=O)[O-])c1)N1CCOCC1` [Compound 2973], the IC50 turned out to be 20 nM. Still for that read-out and setting: in the case of `CN(C(=O)c1ccc(Oc2cc(COP(=O)(N3CC3)N3CC3)ccc2[N+](=O)[O-])cc1)c1ccccc1` [Compound 2974] it was 1 nM; in that of `CC(OP(=O)(N1CC1)N1CC1)c1ccc([N+](=O)[O-])c(Oc2ccc(C(=O)N(C)c3ccccc3)cc2)c1` (centres unmarked) [Compound 2978], 2 nM; in that of `CC(OP(=O)(N1CC1)N1CC1)c1ccc([N+](=O)[O-])c(Oc2ccccc2S(C)(=O)=O)c1` (centres unmarked) [Compound 2980], 3000 nM. Same read-out and setting: in the case of `CS(=O)(=O)c1ccccc1Oc1cc(COP(=O)(N2CC2)N2CC2)ccc1[N+](=O)[O-]` [Compound 2981] it was 3700 nM; in that of `CC(OP(=O)(N1CC1)N1CC1)c1ccc([N+](=O)[O-])c(Oc2cccc(C(=O)N3CCCCC3)c2)c1` (centres unmarked) [Compound 2982], 4 nM. In the case of `O=C(c1cccc(Oc2cc(COP(=O)(N3CC3)N3CC3)ccc2[N+](=O)[O-])c1)N1CCCCC1` [Compound 2983], the IC50 was determined as 4 nM. Still for that read-out and setting: the same measure for `CC(OP(=O)(N1CC1)N1CC1)c1ccc([N+](=O)[O-])c(Oc2cccc(C(=O)N3CCCC3)c2)c1` (centres unmarked) [Compound 2984]: 5 nM; for `CCN(CC)C(=O)c1cccc(Oc2cc(C(C)OP(=O)(N3CC3)N3CC3)ccc2[N+](=O)[O-])c1` (centres unmarked) [Compound 2985]: 4 nM. Same read-out and setting: the same measure for `CC(OP(=O)(N1CC1)N1CC1)c1ccc([N+](=O)[O-])c(Oc2cccc(-c3ccccc3)c2)c1` (centres unmarked) [Compound 2991]: 6 nM. On to `CC(OP(=O)(N1CC1)N1CC1)c1ccc([N+](=O)[O-])c(Oc2cccc(C(=O)N(C)c3ccccc3)c2)c1` (centres unmarked) [Compound 2992], for which the IC50 was determined as 4 nM.

`CC(OP(=O)(N1CC1)N1CC1)c1ccc([N+](=O)[O-])c(Oc2cccc(C(=O)N3CCS(=O)(=O)CC3)c2)c1` (centres unmarked) [Compound 2993]: the IC50 stood at 20 nM. As for `CC(OP(=O)(N1CC1)N1CC1)c1ccc([N+](=O)[O-])c(Oc2ccccc2-c2ccccc2)c1` (centres unmarked) [Compound 3028], the IC50 turned out to be 700 nM. For the compound `O=[N+]([O-])c1ccc(COP(=O)(N2CC2)N2CC2)cc1Oc1ccccc1-c1ccccc1` [Compound 3029], the IC50 came to 600 nM. On the same count and under the same terms, in the case of `Cc1ccc(Oc2cc(C(C)OP(=O)(N3CC3)N3CC3)ccc2[N+](=O)[O-])cc1` (centres unmarked) [Compound 3030] it was 20 nM. As for `Cc1ccc(Oc2cc(COP(=O)(N3CC3)N3CC3)ccc2[N+](=O)[O-])cc1` [Compound 3031], the IC50 came to 10 nM. Same read-out and setting: in the case of `Cc1ccccc1-c1ccc(Oc2cc(C(C)OP(=O)(N3CC3)N3CC3)ccc2[N+](=O)[O-])cc1` (centres unmarked) [Compound 3032] it was 3 nM; in that of `Cc1ccccc1-c1ccc(Oc2cc(COP(=O)(N3CC3)N3CC3)ccc2[N+](=O)[O-])cc1` [Compound 3033], 1 nM; in that of `CC(OP(=O)(N1CC1)N1CC1)c1ccc([N+](=O)[O-])c(Oc2ccc(C(C)(C)C)cc2)c1` (centres unmarked) [Compound 3034], 8 nM. As for `CC(C)(C)c1ccc(Oc2cc(COP(=O)(N3CC3)N3CC3)ccc2[N+](=O)[O-])cc1` [Compound 3035], the IC50 is 1 nM. On the same count and under the same terms, in the case of `CC(OP(=O)(N1CC1)N1CC1)c1ccc([N+](=O)[O-])c(Oc2ccc(C(F)(F)F)cc2)c1` (centres unmarked) [Compound 3036] it was 4 nM; in that of `O=[N+]([O-])c1ccc(COP(=O)(N2CC2)N2CC2)cc1Oc1ccc(C(F)(F)F)cc1` [Compound 3037], 1 nM.

The record behind these values is patent US10766914B2, “DNA alkylating agents” (OBI PHARMA, INC., priority 2015, dated 2020).
